Values of other authors as cited in patent US20140044668A1, “Methods for Predicting Cardiovascular Risks and Responsiveness to Statin Therapy Using SNPs” (THE OHIO STATE UNIVERSITY, priority 2011, published 2014).

Target: T1, CETP (Homo sapiens, UniProt P11597)
T1 sequence (P11597 18-493): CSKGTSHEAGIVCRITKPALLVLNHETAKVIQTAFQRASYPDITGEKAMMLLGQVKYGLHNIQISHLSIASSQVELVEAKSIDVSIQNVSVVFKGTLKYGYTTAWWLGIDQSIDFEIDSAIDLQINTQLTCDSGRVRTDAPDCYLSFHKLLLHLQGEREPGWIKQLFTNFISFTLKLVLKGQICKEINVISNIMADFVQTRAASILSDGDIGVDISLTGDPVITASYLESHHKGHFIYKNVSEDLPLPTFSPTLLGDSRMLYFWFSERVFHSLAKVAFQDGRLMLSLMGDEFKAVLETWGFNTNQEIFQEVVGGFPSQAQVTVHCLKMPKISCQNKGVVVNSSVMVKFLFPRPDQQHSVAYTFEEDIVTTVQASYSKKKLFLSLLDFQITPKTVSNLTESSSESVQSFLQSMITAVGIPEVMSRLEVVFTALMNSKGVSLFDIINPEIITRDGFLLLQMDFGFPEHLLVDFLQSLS
Details: in vivo

- HDL: HDL increased
- LDL: LDL decreased substantially
Structure (SMILES): CCOC(=O)N1c2ccc(C(F)(F)F)cc2[C@@H](N(Cc2cc(C(F)(F)F)cc(C(F)(F)F)c2)C(=O)OC)C[C@H]1CC [torcetrapib]
- cardiovascular events: increase cardiovascular events
